# Laboratory results reported in patent publication US20200270225A1, “Chiral Diacylhydrazine Ligands for Modulating the Expression of Exogenous Genes via an Ecdysone Receptor Complex” (Intrexon Corporation, priority 2007, published 2020).
# Where two headings read alike, the source gives them in different places.
# Experiments:
# [1] = molecular target: T1, [V390I/Y410E/E274V]-CfEcR (Choristoneura fumiferana, UniProt O77240); type: cell-based; conditions: 3T3 Cells; for RMFI (relative maximum fold induction): relative to GS-E ligand
# T1 construct: assay construct b835
# Protocol: (§1) Cellular gene switch assays were performed by transiently transfecting the following constructs in mouse embryonic fibroblast cells (NIH3T3). The wild-type D, E and F domains from Choristoneura fumiferana EcR or its V390I/Y410E/E274V mutant were fused to GAL4-DBD and placed under the control of the CMV promoter in the pBIND vector (Promega Corporation, Madison, Wis., USA). The DEF domains of EcRs shown were amplified using primers designed based on 20-25 nt sequences at the 5′ and 3′ ends. Restriction enzyme sites EcoR I/BamH I and Xba I were added to 5′ and 3′ primers respectively. The PCR products were digested with appropriate restriction enzymes and cloned into pBIND vector. The EcR LBDs cloned into pBIND vector were verified by sequencing. A chimeric RXR from Homo sapiens RXRP and Locusta migratoria RXR, fused to VP16-AD and placed under the control of an SV40e promoter, was constructed as previously described (Kumar P & Katakam A in Gene Transfer, Friedmann T and Rossi J, eds, pp. 643-651 (2007), Cold Spring Harbor Laboratory Press, Cold Spring Harbor, N.Y.). The inducible luciferase reporter plasmid pFRLuc (Stratagene Cloning Systems, La Jolla, Calif., USA), contains five copies of the GAL4 response element and a synthetic minimal promoter.
# (§2) NIH3T3 cells were maintained at 37′C and 5% CO2 in Dulbecco's modified Eagle's medium (DMEM) supplemented with 10% bovine calf serum, both obtained from Mediatech Inc., Manassas, Va. Cells were planted in a 96-well plate at a density of 2,500 cells/well in 50 μL of growth medium. The following day cells were first treated with 35 μL of serum-free DMEM containing dimethyl sulfoxide (DMSO; control) or a DMSO solution containing ligand. Cells were then transfected with 15 μl of serum-free DMEM containing 0.04 μg of EcR construct, 0.04 ug of RXR construct, and 0.16 μg of luciferase reporter construct per well, using SuperFect™ transfection reagent (Qiagen Inc., Valencia, Calif., USA) according to the manufacturer's instructions. Ligands were tested at 8 doses from 0.01-33 μM and the final DMSO concentration was 0.33% in both control and treatment wells. After a 48 hour post-treatment and transfection incubation, the cells were assayed for luciferase activity using the Bright-Glo™ Luciferase Assay System (Promega Corporation, Madison, Wis., USA) following the manufacturer's instructions. EC50 values were measured minimally in duplicate.
# (§3) Luciferase reporter gene expression was measured 48 h after cell treatment using Bright-Glo™ Luciferase Assay System from Promega (E2650). Luminescence was detected at room temperature using a Dynex MLX microtiter plate luminometer.
# (§4) Each assay was conducted in two separate wells, and the two values were averaged. Fold inductions were calculated by dividing relative light units (“RLU”) in ligand treated cells with RLU in DMSO treated cells. EC50s were calculated from dose response data using a three-parameter logistic model. Relative Max FI was determined as the maximum fold induction of the tested ligand (an embodiment of the invention) observed at any concentration relative to the maximum fold induction of GS™-E ligand (3,5-dimethyl-benzoic acid N-tert-butyl-N′-(2-ethyl-3-methoxy-benzoyl)-hydrazide) observed at any concentration.
# [2] = molecular target: wild-type Choristoneura fumiferana EcR (D, E and F domains) (Choristoneura fumiferana, UniProt O77240); type: cell-based; conditions: WT-CtEcR, 3T3 Cells; for RMFI (relative maximum fold induction): relative to GS-E ligand
# Protocol: as §1, §2, §3, §4
Compound,"EC50 ([1]; rac, read-out: EC50) [nM]",RMFI (relative maximum fold induction) ([1]; rac),"EC50 ([2]; rac, read-out: EC50) [nM]",RMFI (relative maximum fold induction) ([2]; rac),EC50 ([1]; R) [nM],RMFI (relative maximum fold induction) ([1]; R),EC50 ([2]; R) [nM],RMFI (relative maximum fold induction) ([2]; R),also measured
CCCC(N(NC(=O)c1ccc2c(c1C)OCCO2)C(=O)c1cc(C)cc(C)c1)C(C)(C)C (racemic) [rac-21],~0.1,0.85,1.32,0.86,–,–,–,–,–
"CCC[C@H](N(NC(=O)OC(C)(C)C)C(=O)c1cc(C)cc(C)c1)C(C)(C)C [Example 48, (S)—N′-(1-tert-Butyl-butyl)-N′-(3,5-dimethyl-benzoyl)-hydrazinecarboxylic Acid tert-butyl Ester]",–,–,–,–,–,–,–,–,EC50 ([1]; S): 6600 nM; RMFI (relative maximum fold induction) ([1]; S): 0.20; EC50 ([2]; S): > 33000 nM; RMFI (relative maximum fold induction) ([2]; S): 0.03
"C=CC[C@@H](N(NC(=O)OCc1ccccc1)C(=O)c1cc(C)cc(C)c1)C(C)(C)C [Example 1.5, (R)—N′-(1-tert-butyl-but-3-enyl)-N′-(3,5-dimethyl-benzoyl)-hydrazinecarboxylic acid benzyl ester]",–,–,–,–,~2000,0.36,> 10000,0.01,–
"CCC[C@@H](N(NC(=O)c1cccs1)C(=O)c1cc(C)cc(C)c1)C(C)(C)C [Example 25, (R)-3,5-Dimethyl-benzoic acid N-(1-tert-butyl-butyl)-N′-(thiophene-2-carbonyl)-hydrazide]",–,–,–,–,~20,0.72,432,0.42,–
"CCC[C@H](N(NC(=O)c1ccccc1C)C(=O)c1cc(C)cc(C)c1)C(C)(C)C [Example 33, (S)-3,5-Dimethyl-benzoic acid N-(1-tert-butyl-butyl)-N′-(2-methyl-benzoyl)-hydrazide]",–,–,–,–,–,–,–,–,EC50 ([1]; S): ~400 nM; RMFI (relative maximum fold induction) ([1]; S): 0.48; EC50 ([2]; S): ~3300 nM; RMFI (relative maximum fold induction) ([2]; S): 0.20
"CCC[C@H](C1CCCCC1)N(NC(=O)c1cccc(OC)c1)C(=O)c1cc(C)cc(C)c1 [Example 54, (R)-3,5-Dimethyl-benzoic acid N-(1-cyclohexyl-butyl)-N′-(3-methoxy-benzoyl)-hydrazide]",–,–,–,–,474,0.44,~3300,0.19,–
CCCC(N(NC(=O)c1c(Cl)cccc1Cl)C(=O)c1cc(C)cc(C)c1)C(C)(C)C (racemic) [rac-3],12.2,0.97,100,–,–,–,–,–,–
C=CCC(CCc1ccccc1)N(NC(=O)c1ccc(CC)cc1)C(=O)c1cc(C)cc(C)c1 (racemic) [rac-62],2110,0.67,~5000,0.06,–,–,–,–,–
"C=CC[C@H](C1CCCCC1)N(NC(=O)c1cccc(OC)c1C)C(=O)c1cc(C)cc(C)c1 [Example 60, (R)-3,5-Dimethyl-benzoic acid N-(1-cyclohexyl-but-3-enyl)-N′-(3-methoxy-2-methyl-benzoyl)-hydrazide]",–,–,–,–,746,0.78,~2000,0.62,–
"CCC[C@H](N(NC(=O)c1ccccc1Cl)C(=O)c1cc(C)cc(C)c1)C(C)(C)C [Example 35, (S)-3,5-Dimethyl-benzoic acid N-(1-tert-butyl-butyl)-N′-(2-chloro-benzoyl)-hydrazide]",–,–,–,–,–,–,–,–,EC50 ([1]; S): ~20 nM; RMFI (relative maximum fold induction) ([1]; S): 0.77; EC50 ([2]; S): ~1000 nM; RMFI (relative maximum fold induction) ([2]; S): 0.44
"C=CC[C@H](C1CCCCC1)N(NC(=O)c1cccc(OC)c1C)C(=O)c1cc(C)c(OC)c(C)c1 [Example 61, (R)-4-Methoxy-3,5-dimethyl-benzoic acid N-(1-cyclohexyl-but-3-enyl)-N′-(3-methoxy-2-methyl-benzoyl)-hydrazide]",–,–,–,–,1020,0.67,~3300,0.33,–
"CCC[C@@H](N(NC(=O)c1cc(OC)c(C)c(OC)c1)C(=O)c1cc(C)cc(C)c1)C(C)(C)C [Example 19, (R)-3,5-Dimethyl-benzoic acid N-(1-tert-butyl-butyl)-N′-(3,5-dimethoxy-4-methyl-benzoyl)-hydrazide]",–,–,–,–,~2000,0.37,~5000,0.09,–
CCCC(N(NC(=O)c1ccc(OC)c(OC)c1)C(=O)c1cc(C)cc(C)c1)C(C)(C)C (racemic) [rac-17],720,0.51,4130,0.25,–,–,–,–,–
C=CCC(C1CCCCC1)N(NC(=O)c1cccc(OC)c1C)C(=O)c1cc(C)cc(C)c1 (racemic) [rac-60],~200,0.73,~1000,0.49,–,–,–,–,–
CCCC(N(NC(=O)c1ccccc1OC)C(=O)c1cc(C)cc(C)c1)C(C)(C)C (racemic) [rac-4],~300,0.72,~2000,0.32,–,–,–,–,–
"CCC[C@@H](N(NC(=O)OC(C)(C)C)C(=O)c1cc(C)cc(C)c1)C(C)(C)C [Example 49, (R)—N′-(1-tert-Butyl-butyl)-N′-(3,5-dimethyl-benzoyl)-hydrazinecarboxylic acid tert-butyl Ester]",–,–,–,–,2750,0.59,15100,0.15,–
CCCC(N(NC(=O)c1cc(C)oc1C)C(=O)c1cc(C)cc(C)c1)C(C)(C)C (racemic) [rac-26],84,0.97,2140,0.76,–,–,–,–,–
CCCC(N(NC(=O)c1ccc(CC)cc1)C(=O)c1cc(C)cc(C)c1)C(C)(C)C (racemic) [rac-12],~0.6,0.96,~20,0.79,–,–,–,–,–
CCCC(N(NC(=O)c1ccc2ccccc2c1)C(=O)c1cc(C)cc(C)c1)C(C)(C)C (racemic) [rac-24],61,0.62,~500,0.44,–,–,–,–,–
CCCC(N(NC(=O)c1ccc(Cl)cc1)C(=O)c1cc(C)cc(C)c1)C(C)(C)C (racemic) [rac-14],~20,0.83,~200,0.46,–,–,–,–,–
CCCC(N(NC(=O)c1cccc(OC)c1C)C(=O)c1cc(OC)c(C)c(OC)c1)C(C)(C)C (racemic) [rac-51],15,0.81,80.2,0.82,–,–,–,–,–
CCCC(N(NC(=O)c1cccc(C)c1)C(=O)c1cc(C)cc(C)c1)C(C)(C)C (racemic) [rac-8],16.2,0.86,193,0.88,–,–,–,–,–
"CCC[C@H](N(NC(=O)c1ccccc1F)C(=O)c1cc(C)cc(C)c1)C(C)(C)C [Example 34, (S)-3,5-Dimethyl-benzoic acid N-(1-tert-butyl-butyl)-N′-(2-fluoro-benzoyl)-hydrazide]",–,–,–,–,–,–,–,–,EC50 ([1]; S): 86 nM; RMFI (relative maximum fold induction) ([1]; S): 0.64; EC50 ([2]; S): 529 nM; RMFI (relative maximum fold induction) ([2]; S): 0.41
